Laboratory results: patent US7064139B2, “Method for treating retroviral infections” (Uniroyal Chemical Company, Inc., priority 2001, dated 2006)
Converted amounts (≈) assume the structure as drawn. Read-outs that look alike come from different tables or passages of the source.

Legend:
HIV-1 (IIIB) = experiment: microbe, parasite or virus in culture; type: cell-based; settings: for HIV-1 % Protection: protection of CEM cells against virus-induced cytopathicity at the concentration in the previous column; for EC50: Human immunodeficiency virus 1, IIIB, CCRF-CEM, read-out: EC50 (ug/ml) HIV-1
Text: (§1) The cell type used to determine activity of the compounds of the invention herein, i.e., the test compounds, against HIV was human T-lymphoblast (CEM) cells obtained from the American Tissue Cell Culture Collection (Rockville, Md.). HIV-1 (IIIB) was originally obtained from the culture of persistently HIV-1 infected H9 cells and was provided by R. C. Gallo and M. Popovic (National Cancer Institute, National Institutes of Health, Bethesda, Md.). HIV-2 (ROD) was originally obtained from L. M. Montagnier (Pasteur Institute, Paris, France).
(§2) To determine the antiviral activity of the test compounds, CEM cells were suspended at a cell density of approximately 300,000 cells per ml of culture medium and infected with approximately 100 CCID50 (100 CCID50 being the 50% cell culture infective dose) of HIV-1 (IIIB) or HIV-2 (ROD)). Then 100 μl of the infected cell suspensions was added to 200 μl micro titer plate wells containing 100 μl of appropriate serial (5-fold) dilutions of the test compounds. The inhibitory effect of the test compounds on HIV-1 or HIV-2 syncytium formation in CEM cells was examined microscopically on day four post infection.
(§3) In these cases, the percent protection of the cells against virus-induced cytopathicity by the test compounds at the indicated compound concentration in the previous column is given.

HIV-2 (ROD) = experiment: Inhibition of HIV-2 syncytium formation in CEM cells; type: cell-based; settings: for HIV-2 % Protection: protection of CEM cells against virus-induced cytopathicity at the concentration in the previous column; for EC50: Human immunodeficiency virus 2, CCRF-CEM, read-out: EC50 (ug/ml) HIV-2
Text: as §1, §2, §3

Davis strain CMV = experiment: Reduction of CMV-induced cytopathicity in HEL cells; type: cell-based, human cytomegalovirus (HCMV); settings: for Antiviral % Inhibition Davis strain CMV: estimate of percent protection at the concentration in the previous column; for EC50: read-out: Antiviral EC50 (ug/ml) Davis strain CMV
Description: Confluent HEL cells grown in […] microtiter plates were inoculated with CMV at an input of 100 PFU (plaque forming units) per well. After a one to two hour incubation period, residual virus was removed and the infected cells were further incubated with MEM (Minimal Essential Medium) (supplemented with 2% inactivated Fetal Calf Serum (FCS), […], and 0.3% sodium bicarbonate) containing varying concentrations of the test compounds. Antiviral activity was expressed as EC50 (50% effective concentration), or test compound concentration required to reduce virus-induced cytopathicity after seven days by 50% compared to the untreated control.
In some cases, the compounds had considerable cytotoxicity against HEL cells, which made determination of the EC50 difficult. In these cases, an estimate of the percent protection at the compound concentration indicated in the previous columns is given.

[1] = CEM cells, syncytium formation, day four post infection
[2] = HEL cells, virus-induced cytopathicity after seven days
[3] = Human betaherpesvirus 5, 168 h, HEL cells, virus-induced cytopathicity after seven days

Molecule	EC50 (ug/ml) HIV-1 (HIV-1 (IIIB); [1])	HIV-1 % Protection (HIV-1 (IIIB))	EC50 (ug/ml) HIV-2 (HIV-2 (ROD); [1])	Antiviral EC50 (ug/ml) Davis strain CMV (Davis strain CMV; [2])	HIV-2 % Protection (HIV-2 (ROD))	further results
COc1ccc(CS(=O)(=O)c2cccc[n+]2[O-])cc1 [Compound 19]	≧20 ug/ml	37.5%	14.0 µg/mL (≈ 50.1 µM)	20.0 µg/mL		
O=S(=O)(Cc1cc2c(cc1Cl)OCO2)c1cccc[n+]1[O-] [Compound 21]	11.70 µg/mL (≈ 35.7 µM)		6.3 µg/mL (≈ 19.2 µM)	10.0 µg/mL		
Cc1cccc(CS(=O)(=O)c2cccc[n+]2[O-])c1 [Compound 27]	2.40 µg/mL (≈ 9.11 µM)		9.0 µg/mL (≈ 34.2 µM)	16.0 µg/mL		
Cc1ccc[n+]([O-])c1SCc1c(Cl)cccc1Cl [Compound 137]	>20 µg/mL	0.0%	>20.00 µg/mL	28.0 µg/mL	0.0%	
Cc1ccc(C)c(C(C)S(=O)(=O)c2ccccn2)c1 (stereo not shown) [Compound 161]	9.50 µg/mL (≈ 34.5 µM)		>100 µg/mL	38.0 µg/mL	0.0%	
[O-][n+]1cc(Cl)ccc1SCc1ccccc1 [Compound 151]	>20 µg/mL	0.0%	>20.00 µg/mL	>20 µg/mL	0.0%	Antiviral % Inhibition Davis strain CMV (Davis strain CMV; HEL cells): 20.0%
N#CC(=Cc1ccccc1)Sc1cccc[n+]1[O-] [Compound 158]	>4 µg/mL	0.0%	>4 µg/mL	3.6 µg/mL	0.0%	
Cc1ccc(C)c(C(C)S(=O)(=O)c2ccc(C)c[n+]2[O-])c1 (stereo not shown) [Compound 110, 2-[1-(2,5-Dimethylphenyl)ethylsulfonyl]-5-methylpyridine N-oxide]					0.0%	EC50 (HIV-1 (IIIB); [1]): 5.5 µg/mL (≈ 18 µM); EC50 (HIV-2 (ROD); [1]): > 100 µg/mL; EC50 (Davis strain CMV; [3]): 50 µg/mL (≈ 164 µM)
Cc1ccc(C)c(CSc2ccccn2)c1.Cl [Compound 157]	6.00 µg/mL		≧20 ug/ml	>50 µg/mL	37.5%	Antiviral % Inhibition Davis strain CMV (Davis strain CMV; HEL cells): 0.0%
Cc1ccc(C)c(CS(=O)(=O)c2ccc(Cl)c[n+]2[O-])c1 [Compound 94]	1.90 µg/mL (≈ 6.09 µM)		2.6 µg/mL (≈ 8.34 µM)	12.0 µg/mL		
Cc1ccc[n+]([O-])c1S(=O)(=O)Cc1ccccc1 [Compound 80]	15.00 µg/mL (≈ 57 µM)		>20.0 µg/mL	>20 µg/mL	0.0%	Antiviral % Inhibition Davis strain CMV (Davis strain CMV; HEL cells): 0.0%
CCCCCCCC(c1cc(C)ccc1C)S(=O)(=O)c1cccc[n+]1[O-] (stereo not shown) [Compound 7, 2-[1-(2,5-Dimethylphenyl)octylsulfonyl]pyridine N-oxide]		0.0%			0.0%	EC50 (HIV-1 (IIIB); [1]): > 0.8 µg/mL; EC50 (HIV-2 (ROD); [1]): > 0.8 µg/mL; EC50 (Davis strain CMV; [3]): 0.7 µg/mL (≈ 1.86 µM)
Cc1cc[n+]([O-])c(S(=O)(=O)Cc2ccc(Cl)cc2)c1 [Compound 129]	>14 µg/mL		11.0 µg/mL (≈ 36.9 µM)	>5 µg/mL		Antiviral % Inhibition Davis strain CMV (Davis strain CMV; HEL cells): 20.0%
O=S(=O)(Cc1ccccc1F)c1cccc[n+]1[O-] [Compound 22]	12.00 µg/mL (≈ 44.9 µM)		6.3 µg/mL (≈ 23.6 µM)	7.0 µg/mL		
Cc1ccc(C)c(C(C)[S+]([O-])c2ccccn2)c1 (stereo not shown) [Compound 163]	3.25 µg/mL (≈ 12.5 µM)		>100 µg/mL	>50 µg/mL	0.0%	Antiviral % Inhibition Davis strain CMV (Davis strain CMV; HEL cells): 0.0%
Cc1ccccc1CS(=O)(=O)c1cccc[n+]1[O-] [Compound 16, 2-(2-Methylphenylmethylsulfonyl)-pyridine N-oxide]						EC50 (HIV-1 (IIIB); [1]): 11 µg/mL (≈ 41.8 µM); EC50 (HIV-2 (ROD); [1]): 7.5 µg/mL (≈ 28.5 µM); EC50 (Davis strain CMV; [3]): 12 µg/mL (≈ 45.6 µM)

Molecule	EC50 (ug/ml) HIV-1 (HIV-1 (IIIB); [1])	HIV-1 % Protection (HIV-1 (IIIB))	EC50 (ug/ml) HIV-2 (HIV-2 (ROD); [1])	Antiviral EC50 (ug/ml) Davis strain CMV (Davis strain CMV; [2])	HIV-2 % Protection (HIV-2 (ROD))	further results
[O-][n+]1c(Cl)cccc1SCc1ccccc1 [Compound 149]	9.00 µg/mL (≈ 35.8 µM)		16.0 µg/mL (≈ 63.6 µM)	20.0 µg/mL		
Cc1ccc(C[S+]([O-])c2cccc[n+]2[O-])cc1C (stereo not shown) [Compound 89]	2.50 µg/mL (≈ 9.57 µM)		2.8 µg/mL (≈ 10.7 µM)	20.0 µg/mL		
Cc1ccc2ccccc2c1CS(=O)(=O)c1cccc[n+]1[O-] [Compound 43]	≧4 ug/ml	37.5%	≧4 ug/ml	>50 µg/mL	37.5%	Antiviral % Inhibition Davis strain CMV (Davis strain CMV; HEL cells): 20.0%
Cc1ccc(CS(=O)(=O)c2cccc[n+]2[O-])c(C)c1 [Compound 52]	6.00 µg/mL (≈ 21.6 µM)		6.5 µg/mL (≈ 23.4 µM)	12.0 µg/mL		
Cc1cc[n+]([O-])c([S+]([O-])Cc2ccc(Cl)cc2)c1 (stereo not shown) [Compound 128]	≧4 ug/ml	37.5%	7.0 µg/mL (≈ 24.8 µM)	>20 µg/mL		Antiviral % Inhibition Davis strain CMV (Davis strain CMV; HEL cells): 40.0%
O=S(=O)(Cc1ccccc1Cl)c1cccc[n+]1[O-] [Compound 15]	6.00 µg/mL (≈ 21.1 µM)		7.0 µg/mL (≈ 24.7 µM)	5.0 µg/mL		
O=S(=O)(Cc1c(Cl)cccc1Cl)c1cccc[n+]1[O-] [Compound 17, 2-(2,6-Dichlorophenylmethylsulfonyl)pyridine N-oxide]						EC50 (HIV-1 (IIIB); [1]): 9 µg/mL (≈ 28.3 µM); EC50 (HIV-2 (ROD); [1]): 8 µg/mL (≈ 25.1 µM); EC50 (Davis strain CMV; [3]): 5 µg/mL (≈ 15.7 µM)
O=S(=O)(Cc1ccccc1)c1ccccn1 [Compound 143]	30.00 µg/mL (≈ 129 µM)		50.0 µg/mL (≈ 214 µM)	>50 µg/mL		Antiviral % Inhibition Davis strain CMV (Davis strain CMV; HEL cells): 0.0%
Cc1ccc(C)c(C(C)S(=O)(=O)c2cccc(Cl)[n+]2[O-])c1 (stereo not shown) [Compound 76]	0.90 µg/mL (≈ 2.76 µM)		2.4 µg/mL (≈ 7.37 µM)	9.1 µg/mL		
O=[N+]([O-])c1ccc[n+]([O-])c1SCc1ccccc1 [Compound 146]	2.30 µg/mL (≈ 8.77 µM)		≧20 ug/ml	40.0 µg/mL	37.5%	
2-(4-(2,2-dichlorocyclopropyl)phenyl)methylsulfonyl)-pyridine-N-oxide [Compound 45]	1.75 µg/mL		1.5 µg/mL	2.5 µg/mL		
Cc1ccc(C)c(C(Cl)S(=O)(=O)c2c(Cl)ccc[n+]2[O-])c1 (stereo not shown) [Compound 125]	>4 µg/mL	0.0%	>4.0 µg/mL	31.5 µg/mL	0.0%	
Cc1ccc(C)c(C(C)Sc2cc(C)c3ccccc3n2)c1 (stereo not shown) [Compound 162, 2-[[1-(2,5dimethylphenyl)ethyl]thio]-4-methyl-Quinoline]		0.0%			0.0%	EC50 (HIV-1 (IIIB)): > 0.8 µg/mL; EC50 (HIV-2 (ROD)): > 0.16 µg/mL; EC50 (Davis strain CMV; Human betaherpesvirus 5, HEL, 168 h): 1.6 µg/mL (≈ 5.2 µM)
COc1ccc(C[S+]([O-])c2cccc[n+]2[O-])cc1OC (stereo not shown) [Compound 98]	>.8 µg/mL	0.0%	>0.8 µg/mL	10.0 µg/mL	0.0%	
Cc1ccc(CS(=O)(=O)c2cccc[n+]2[O-])cc1 [Compound 11]	13.00 µg/mL (≈ 49.4 µM)		10.0 µg/mL (≈ 38 µM)	29.0 µg/mL		
O=S(=O)(Cc1c(Cl)ccc(Cl)c1Cl)c1cccc[n+]1[O-] [Compound 33]	≧4 ug/ml	37.5%	≧4 ug/ml	5.0 µg/mL	37.5%	
